Measurements: ChEMBL document CHEMBL1126223, “Adenosine deaminase inhibitors. Synthesis and biological evaluation of C1' and nor-C1' derivatives of (+)-erythro-9-(2(S)-hydroxy-3(R)-nonyl)adenine” (J Med Chem, 1992)

What was measured:
[1] = biological target: T1, Adenosine deaminase (Bos taurus, UniProt P56658); assay: Binding affinity (Ki) at calf intestinal Adenosine deaminase
T1 sequence (P56658 whole entry): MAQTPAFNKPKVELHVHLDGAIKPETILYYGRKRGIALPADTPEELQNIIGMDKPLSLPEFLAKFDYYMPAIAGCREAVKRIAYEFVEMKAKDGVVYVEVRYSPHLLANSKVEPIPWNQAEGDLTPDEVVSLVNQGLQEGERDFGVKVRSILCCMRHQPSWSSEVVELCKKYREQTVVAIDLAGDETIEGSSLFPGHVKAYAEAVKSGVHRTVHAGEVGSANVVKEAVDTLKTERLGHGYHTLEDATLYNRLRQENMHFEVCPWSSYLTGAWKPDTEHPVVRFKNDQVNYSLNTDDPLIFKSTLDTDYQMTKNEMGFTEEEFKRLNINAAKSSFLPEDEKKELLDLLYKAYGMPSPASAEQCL

[2] = biological target: T1, Adenosine deaminase; assay: Binding affinity (Ki) at calf intestinal adenosine deaminase.

Row | Ki [1] [nM] | Ki [2] [nM] | SMILES
1 | 56 |  | CCCCCC[C@H]([C@@H](O)CO)n1cnc2c(N)ncnc21
2 |  | 320 | CCCCCC[C@H](CCl)n1cnc2c(N)ncnc21
3 | 1600 |  | CCCCCC[C@H](CF)n1cnc2c(N)ncnc21
4 |  | 600 | CCCCCC[C@H](CBr)n1cnc2c(N)ncnc21
5 |  | 1000 | CCCCCC[C@@H]1[C@@H](O)C[n+]2cnc(N)c3ncn1c32
6 |  | 1300 | CCCCCC[C@H](CN=[N+]=[N-])n1cnc2c(N)ncnc21
7 | 2 |  | CCCCCC[C@H]([C@H](C)O)n1cnc2c(N)ncnc21 [(+)-EHNA]
8 |  | 4 | CCCCCC[C@@H]([C@@H](C)O)n1cnc2c(N)ncnc21 [EHNA]

Row | SMILES | Ki [1] [nM] | Ki [2] [nM]
9 | CCCCCC[C@H]([C@@H]1CO1)n1cnc2c(N)ncnc21 | 890 | 
10 | CCCCCC[C@H](CO)n1cnc2c(N)ncnc21 | 47 | 
